# Source: patent publication US9624200B2, “Therapeutic piperazines” (DART NEUROSCIENCE (CAYMAN) LTD., priority 2006, dated 2017)
# System: PDE4 from human U-937 cells
# Experiment: PDE4 Inhibition Assay
# Assay type: biochemical
# Details: 1 μM cAMP, [3H]-cAMP, read-out: Potency Class (Inhibitory Concentration) in the PDE4 assay
# Protocol: PDE4 from human U-937 cells was used (see T. J. Torphy, et al., J. Pharmacol. Exp. Ther., 1992, 263, 1195-1205). Test compound at various concentration and/or vehicle was preincubated with 2 μg/ml enzyme in Tris-HCl buffer pH 7.5 for 15 minutes at 25° C. The reaction was initiated by addition of 1 1 μM cAMP and 0.01 1 μM [^3H]-cAMP for another 20 minute incubation period and terminated at 100° C. The resulting [^3H]-AMP was converted to [^3H]-adenosine by addition of snake venom nucleotidase and separated by AG1-X2 resin. An aliquot was removed and counted to determine the amount of [^3H]-adenosine formed. Results were converted to percent inhibition and IC so determined using XLfit from IDBS (ID Business Solutions Ltd., 2 Occam Court, Surrey Research Park, Guildford, Surrey, GU2 7QB UK).
# Representative compounds of the present invention were tested and found to have significant PDE4 inhibition in this assay.
row,SMILES,IC50
1,"COc1ccc(N2CCN(C(=O)Cc3n[nH]c(N)n3)[C@@H](Cc3ccccc3)C2)cc1OC1CCC1 [Compound 339, (S)-2-(5-amino-1H-1,2,4-triazol-3-yl)-1-(2-benzyl-4-(3-cyclobutoxy-4-methoxyphenyl)piperazin-1-yl)ethanone]",< 200 nM
2,"Cc1nc(CC(=O)N2CCN(c3ccc(OC(F)F)c(OCC4CC4)c3)C[C@@H]2CC(C)C)n[nH]1 [Compound 373, (S)-1-(4-(3-(cyclopropylmethoxy)-4-(difluoromethoxy)phenyl)-2-isobutylpiperazin-1-yl)-2-(5-methyl-1-H-1,2,4-triazol-3-yl)ethanone]",< 200 nM
3,"COc1ccc(N2CCN(C(=O)[C@@H]3CNC(=O)N3)[C@@H](Cc3ccccc3)C2)cc1OC1CCCC1 [Compound 292, (S)-4-((S)-2-benzyl-4-(3-(cyclopentyloxy)-4-methoxyphenyl)piperazine-1-carbonyl)imidazolidin-2-one]",< 200 nM
4,"COc1ccc(N2CCN(C(=O)CN)[C@@H](Cc3ccccc3)C2)cc1OC1CCC1 [Compound 349, (S)-2-amino-1-(2-benzyl-4-(3-cyclobutoxy-4-methoxyphenyl)piperazin-1-yl)ethanone]",> 1000 nM
5,"COc1ccc(N2CCN(CCC(N)=O)[C@@H](Cc3ccccc3)C2)cc1OC1CCCC1 [Compound 269, (S)-3-(2-benzyl-4-(3-(cyclopentyloxy)-4-methoxyphenyl)piperazin-1-yl)propanamide]",< 200 nM
6,"CCc1nn(C2CCC2)c2cc(N3CCN(C(=O)Cc4ncccn4)[C@@H](Cc4ccccc4)C3)ccc12 [Compound 353, (S)-1-(2-benzyl-4-(1-cyclobutyl-3-ethyl-1H-indazol-6-yl)piperazin-1-yl)-2-(pyrimidin-2-yl)ethanone]",> 1000 nM
7,"COc1ccc(N2CCN(C(=O)Cc3cncs3)[C@@H](Cc3ccccc3)C2)cc1OC1CCCC1 [Compound 291, (S)-1-(2-benzyl-4-(3-(cyclopentyloxy)-4-methoxyphenyl)piperazin-1-yl)-2-(thiazol-5-yl)ethanone]",200 to 1000 nM
8,"COc1ccc(N2CCN(C(=O)Cc3c[nH]cn3)[C@@H](CC(C)C)C2)cc1OC1CCCC1 [Compound 364, (S)-1-(4-(3-(cyclopentyloxy)-4-methoxyphenyl)-2-isobutylpiperazin-1-yl)-2-(1H-imidazol-4-yl)ethanone]",< 200 nM
9,"COc1ccc(N2CCN(C(=O)C(C)(C)O)[C@@H](Cc3ccccc3)C2)cc1OC1CCCC1 [Compound 282, (S)-1-(2-benzyl-4-(3-(cyclopentyloxy)-4-methoxyphenyl)piperazin-1-yl)-2-hydroxy-2-methylpropan-1-one]",200 to 1000 nM
10,"COc1ccc(N2CCN(C(=O)CC(=O)O)[C@@H](Cc3ccccc3)C2)cc1OC1CCC1 [Compound 258, (S)-3-(2-benzyl-4-(3-cyclobutoxy-4-methoxyphenyl)piperazin-1-yl)-3-oxopropanoic acid]",< 200 nM
11,"COc1ccc(N2CCN(C(=O)C3(O)CCC3)[C@@H](Cc3ccccc3)C2)cc1OC1CCCC1 [Compound 297, (S)-(2-benzyl-4-(3-(cyclopentyloxy)-4-methoxyphenyl)piperazin-1-yl)(1-hydroxycyclobutyl)methanone]",200 to 1000 nM
12,"COc1ccc(N2CCN(C(=O)C3(O)CC3)[C@@H](Cc3ccccc3)C2)cc1OC1CCCC1 [Compound 283, (S)-(2-benzyl-4-(3-(cyclopentyloxy)-4-methoxyphenyl)piperazin-1-yl)(1-hydroxycyclopropyl)methanone]",200 to 1000 nM
13,"COc1ccc(N2CCN(C(=O)Cc3cc[nH]c3)[C@@H](Cc3ccccc3)C2)cc1OC(C)C [Compound 328, (S)-1-(2-benzyl-4-(3-isopropoxy-4-methoxyphenyl)piperazin-1-yl)-2-(1H-pyrrol-3-yl)ethanone]",< 200 nM
14,"CCc1nn(C(C)C)c2cc(N3CCN(CC(N)=O)[C@@H](Cc4ccccc4)C3)ccc12 [Compound 383, (S)-2-(2-benzyl-4-(3-ethyl-1-isopropyl-1H-indazol-6-yl)piperazin-1-yl)acetamide]",> 1000 nM
15,"COc1ccc(N2CCN(C(=O)Cc3c[nH]cn3)[C@@H](Cc3ccccc3)C2)cc1OC(F)F [Compound 347, (S)-1-(2-benzyl-4-(3-(difluoromethoxy)-4-methoxyphenyl)piperazin-1-yl)-2-(1H-imidazol-4-yl)ethanone]",> 1000 nM
16,"COc1ccc(N2CCN(C(=O)CN3CC[C@@H](O)C3)[C@@H](Cc3ccccc3)C2)cc1OC1CCCC1 [Compound 320, 1-((S)-2-benzyl-4-(3-(cyclopentyloxy)-4-methoxyphenyl)piperazin-1-yl)-2-((R)-3-hydroxypyrrolidin-1-yl)ethanone]",> 1000 nM
17,"COc1ccc(N2CCN(C(=O)Cc3cnc[nH]3)[C@@H](Cc3ccccc3)C2)cc1OC1CCCC1 [Compound 240, (S)-1-(2-benzyl-4-(3-(cyclopentyloxy)-4-methoxyphenyl)piperazin-1-yl)-2-(1H-imidazol-5-yl)ethanone]",< 200 nM

row,SMILES,IC50
1,"COc1ccc(N2CCN(C(=O)[C@H]3CCC(=O)O3)[C@@H](Cc3ccccc3)C2)cc1OC1CCCC1 [Compound 296, (R)-5-((S)-2-benzyl-4-(3-(cyclopentyloxy)-4-methoxyphenyl)piperazine-1-carbonyl)dihydrofuran-2(3H)-one]",> 1000 nM
2,"COc1ccc(N2CCN(C(=O)c3c[nH]c(=O)[nH]3)[C@@H](Cc3ccccc3)C2)cc1OC1CCCC1 [Compound 288, (S)-4-(2-benzyl-4-(3-(cyclopentyloxy)-4-methoxyphenyl)piperazine-1-carbonyl)-1H-imidazol-2(3H)-one]",200 to 1000 nM
3,"COc1ccc(N2CCN(C(=O)C3CNC(=O)N3)[C@@H](Cc3ccccc3)C2)cc1OC1CCCC1 (stereo partly drawn) [Compound 281, 4-((S)-2-benzyl-4-(3-(cyclopentyloxy)-4-methoxyphenyl)piperazine-1-carbonyl)imidazolidin-2-one]",< 200 nM
4,"COc1ccc(N2CCN(C(=O)C3(C(=O)O)CCC3)[C@@H](Cc3ccccc3)C2)cc1OC1CCC1 [Compound 315, (S)-1-(2-benzyl-4-(3-cyclobutoxy-4-methoxyphenyl)piperazine-1-carbonyl)cyclobutanecarboxylic acid]",< 200 nM
5,"NC(=O)CN1CCN(c2ccc(OC(F)F)c(OC3CCC3)c2)C[C@@H]1Cc1ccccc1 [Compound 273, (S)-2-(2-benzyl-4-(3-cyclobutoxy-4-(difluoromethoxy)phenyl)piperazin-1-yl)acetamide]",< 200 nM
6,"COc1ccc(N2CCN(C(=O)CCc3cnc[nH]3)[C@@H](Cc3ccccc3)C2)cc1OC1CCCC1 [Compound 239, (S)-1-(2-benzyl-4-(3-(cyclopentyloxy)-4-methoxyphenyl)piperazin-1-yl)-3-(1H-imidazol-5-yl)propan-1-one]",> 1000 nM
7,"COc1ccc(N2CCN(C(=O)Cc3c[nH]cn3)[C@@H](CC(C)C)C2)cc1OC1CCC1 [Compound 367, (S)-1-(4-(3-cyclobutoxy-4-methoxyphenyl)-2-isobutylpiperazin-1-yl)-2-(1H-imidazol-4-yl)ethanone]",< 200 nM
8,"COc1ccc(N2CCN(C(=O)Cc3cc(C)[nH]n3)[C@@H](Cc3ccccc3)C2)cc1OC1CCCC1 [Compound 305, (S)-1-(2-benzyl-4-(3-(cyclopentyloxy)-4-methoxyphenyl)piperazin-1-yl)-2-(5-methyl-1H-pyrazol-3-yl)ethanone]",< 200 nM
9,"COc1ccc(N2CCN(C(=O)Cc3ccc[nH]3)[C@@H](Cc3ccccc3)C2)cc1OC1CCCC1 [Compound 306, (S)-1-(2-benzyl-4-(3-(cyclopentyloxy)-4-methoxyphenyl)piperazin-1-yl)-2-(1H-pyrrol-2-yl)ethanone]",200 to 1000 nM
10,"COc1ccc(N2CCN(CC(N)=O)[C@@H](Cc3ccccc3)C2)cc1OC(F)F [Compound 271, (S)-2-(2-benzyl-4-(3-(difluoromethoxy)-4-methoxyphenyl)piperazin-1-yl)acetamide]",200 to 1000 nM
11,"COc1ccc(N2CCN(C(=O)Cc3nc(C)cs3)[C@@H](Cc3ccccc3)C2)cc1OC1CCCC1 [Compound 308, (S)-1-(2-benzyl-4-(3-(cyclopentyloxy)-4-methoxyphenyl)piperazin-1-yl)-2-(4-methylthiazol-2-yl)ethanone]",< 200 nM
12,"COc1ccc(N2CCN(C(=O)Cc3c[nH]cn3)[C@@H](CC(C)C)C2)cc1OC(C)C [Compound 378, (S)-2-(1H-imidazol-4-yl)-1-(2-isobutyl-4-(3-isopropoxy-4-methoxyphenyl)piperazin-1-yl)ethanone]",200 to 1000 nM
13,"CCc1nn(C2CCC2)c2cc(N3CCN(CC(N)=O)[C@@H](Cc4ccccc4)C3)ccc12 [Compound 275, (S)-2-(2-benzyl-4-(1-cyclobutyl-3-ethyl-1H-indazol-6-yl)piperazin-1-yl)acetamide]",> 1000 nM
14,"COc1ccc(N2CCN(C(=O)Cc3n[nH]c([N+](=O)[O-])n3)[C@@H](Cc3ccccc3)C2)cc1OC1CCCC1 [Compound 325, (S)-1-(2-benzyl-4-(3-(cyclopentyloxy)-4-methoxyphenyl)piperazin-1-yl)-2-(5-nitro-1H-1,2,4-triazol-3-yl)ethanone]",< 200 nM
15,"COc1ccc(N2CCN(C(=O)Cc3n[nH]c(C)n3)[C@@H](Cc3ccccc3)C2)cc1OC(F)F [Compound 346, (S)-1-(2-benzyl-4-(3-(difluoromethoxy)-4-methoxyphenyl)piperazin-1-yl)-2-(5-methyl-1H-1,2,4-triazol-3-yl)ethanone]",< 200 nM
16,"COc1ccc(N2CCN(C(=O)[C@H]3C[C@@H](O)CN3)[C@@H](Cc3ccccc3)C2)cc1OC1CCCC1 [Compound 279, ((S)-2-benzyl-4-(3-(cyclopentyloxy)-4-methoxyphenyl)piperazin-1-yl)((2R,4R)-4-hydroxypyrrolidin-2-yl)methanone]",> 1000 nM
